Measurements: PubChem BioAssay AID2060501 (Molecular Pharmacology Branch, DTP, NCI, 2025)

Tested on: 282377-053-R-J1-PDC complex spheroids, viability
Assay: Anticancer human tumor 282377-053-R-J1-PDC patient-derived colon adenocarcinoma cell line growth inhibition [GQUAD]
Details: for IC50: curve of first compound; for viability, T/C: stronger effect = lower value
From the text: DNA G-quadruplex Stabilizer Agents in Combinations in Complex Spheroids
A high-throughput screen of multi-cell type tumor spheroids was designed to identify active combinations of DNA G-quadruplex stabilizer agents and targeted small molecules. Complex spheroids include a stromal component modeled by human endothelial cells (HUVEC) and fibroblasts modeled by human mesenchymal stem cells (MSCs). The concentration ranges selected for each drug and investigational agent were based upon clinically achievable concentrations if the clinical Cmax of the agent was known.
Compounds. The drugs and investigational agents: pidnarulex (CX-5461; NSC782164), APTO-253 (NSC789042), BRACO-19 (NSC847499), peposertib (NSC802822), ceralasertib (NSC780249), elimusertib (NSC800525), camonsertib (NSC841442), AZD-1390 (NSC803789), olaparib (NSC753686), talazoparib (NSC767125), ART-558 (NSC835418), sotorasib (NSC818433), MRTX-1133 (NSC836407), SN-38 (NSC673596), topotecan (NSC609699), etoposide (NSC141540), doxorubicin (NSC123127), gemcitabine (NSC613327), 5-fluorouracil (NSC19893), paclitaxel (NSC125973), vemurafenib (NSC761431), panobinostat (NSC761190), R-306465 (JNJ-16241199; NSC773264), adavosertib (NSC754352), TP-3654 (NSC805149), carboplatin (NSC241240), KSQ-4279 (NSC840948), and staurosporine (NSC755774) were obtained from the National Cancer Institute (NCI) Developmental Therapeutics Program Chemical Repository (34). The FDA-approved anticancer drug set is available from the NCI Developmental Therapeutics Program. […] The stock solutions were prepared in dimethyl sulfoxide (DMSO, Sigma-Aldrich, St. Louis, MO, cat. D2650) at 800-fold the tested concentration and stored at -70 degrees C prior to their use. All drugs and investigational agents were tested over a range starting from a high concentration at or near the clinical Cmax and decreasing in half-log increments. If the clinical Cmax for an agent had not been determined, the highest concentration tested was 10 microM.
2.3 Cell Culture. All cells were maintained in an incubator at 37 degrees C and 5% CO2 with 95% humidity. The PDC lines were cultured according to standard operating procedures established by the NCI PDMR. All PDCs were thawed and cultured in Matrigel-coated flasks prepared with a working solution of 1X Ham's F-12 nutrient mix, without supplementation (Invitrogen, cat. 11765054), 100 U/mL penicillin-streptomycin (Invitrogen, cat. 15140122), and 2.5% Matrigel (Corning Inc., cat. 354248) for the first three passages. The 857933-349-R-J2-PDC line was cultured in 6C/Colon 1B media, which includes advanced DMEM/F-12 (Thermo Fisher Scientific, cat. 12634028), 10 mM HEPES (Thermo Fisher Scientific, cat. 15630080), 1X GlutaMAX supplement (Thermo Fisher Scientific, cat. 35050061), 0.1 mg/mL primocin (InvivoGen, cat. ant-pm-2), 10% defined fetal bovine serum, heat inactivated (HyClone Laboratories Inc., cat. SH30070.03HI), 50% L-WRN conditioned media (ATCC, cat. CRL-3276), 1.25 mM N-Acetyl-L-cysteine (Sigma-Aldrich, cat. A9165), 10 mM nicotinamide (Sigma-Aldrich, cat. N0636), 1X B-27 supplement (Thermo Fisher Scientific, cat. 17504044), 1X N-2 supplement (Thermo Fisher Scientific, cat. 17502048), 10 microM Y-27632 dihydrochloride (Tocris Bioscience, cat. 1254), and 50 ng/mL human EGF recombinant protein (Thermo Fisher Scientific, cat. PHG0311). The 485176-168-R4-J1-PDC line was cultured in Panc media, which includes all 6C/Colon 1B media components plus 100 ng/mL human FGF-10 (Thermo Fisher Scientific, cat. 100-26), 500 nM SB-431542 (Selleckchem, cat. S1067), and gastrin (Tocris, cat. 3006).
[…]

[1] = second compound 0.0316 µM, first compound 0.0316 µM
[2] = second compound 0.0316 µM, first compound 0.1 µM
[3] = second compound 0.0316 µM, first compound 0.316 µM
[4] = second compound 0.0316 µM, first compound 1 µM
[5] = second compound 0.0316 µM, first compound 3.16 µM
[6] = second compound 0.0316 µM, first compound 10 µM
[7] = second compound 0.1 µM, first compound 0.0316 µM
[8] = second compound 0.1 µM, first compound 0.1 µM
[9] = second compound 0.1 µM, first compound 0.316 µM
[10] = second compound 0.1 µM, first compound 1 µM
[11] = second compound 0.1 µM, first compound 3.16 µM
[12] = second compound 0.1 µM, first compound 10 µM
[13] = second compound 0.316 µM, first compound 0.0316 µM
[14] = second compound 0.316 µM, first compound 0.1 µM
[15] = second compound 0.316 µM, first compound 0.316 µM
[16] = second compound 0.316 µM, first compound 1 µM
[17] = second compound 0.316 µM, first compound 3.16 µM
[18] = second compound 0.316 µM, first compound 10 µM
[19] = second compound 1 µM, first compound 0.0316 µM
[20] = second compound 1 µM, first compound 0.1 µM
[21] = second compound 1 µM, first compound 0.316 µM
[22] = second compound 1 µM, first compound 1 µM
[23] = second compound 1 µM, first compound 3.16 µM
[24] = second compound 1 µM, first compound 10 µM
[25] = second compound 3.16 µM, first compound 0.0316 µM
[26] = second compound 3.16 µM, first compound 0.1 µM
[27] = second compound 3.16 µM, first compound 0.316 µM
[28] = second compound 3.16 µM, first compound 1 µM
[29] = second compound 3.16 µM, first compound 3.16 µM
[30] = second compound 3.16 µM, first compound 10 µM
[31] = second compound 10 µM, first compound 0.0316 µM
[32] = second compound 10 µM, first compound 0.1 µM
[33] = second compound 10 µM, first compound 0.316 µM
[34] = second compound 10 µM, first compound 1 µM
[35] = second compound 10 µM, first compound 3.16 µM
[36] = second compound 10 µM, first compound 10 µM
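Note: spheroids exposed to compounds for 7 days before readout.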
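Throughout, for viability, T/C: percent of vehicle DMSO control viability with 100% = untreated-like growth.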

Structure (SMILES): Cc1cccc(N(C)C(=O)C2C(O)CCN2c2nc(C)cc(C(F)(F)F)c2C#N)c1 (stereo unspecified) + CN(C)c1ccc(Nc2c3ccc(NC(=O)CCN4CCCC4)cc3nc3cc(NC(=O)CCN4CCCC4)ccc23)cc1
- IC50 (second compound 0.0316 µM): > 10 µM
- IC50 (second compound 0.1 µM): > 10 µM
- IC50 (second compound 0.316 µM): > 10 µM
- IC50 (second compound 1 µM): > 10 µM
- IC50 (second compound 3.16 µM): > 10 µM
- IC50 (second compound 10 µM): > 10 µM
- viability, T/C [1]: 110%
- viability, T/C [2]: 104%
- viability, T/C [3]: 93.3%
- viability, T/C [4]: 98.7%
- viability, T/C [5]: 78.2%
- viability, T/C [6]: 104%
- viability, T/C [7]: 105%
- viability, T/C [8]: 96.9%
- viability, T/C [9]: 103%
- viability, T/C [10]: 93.8%
- viability, T/C [11]: 96.3%
- viability, T/C [12]: 82.3%
- viability, T/C [13]: 101%
- viability, T/C [14]: 103%
- viability, T/C [15]: 84.5%
- viability, T/C [16]: 106%
- viability, T/C [17]: 90.2%
- viability, T/C [18]: 63.8%
- viability, T/C [19]: 100%
- viability, T/C [20]: 87.5%
- viability, T/C [21]: 90.5%
- viability, T/C [22]: 90.1%
- viability, T/C [23]: 94.6%
- viability, T/C [24]: 88.1%
- viability, T/C [25]: 94.2%
- viability, T/C [26]: 96.8%
- viability, T/C [27]: 96.7%
- viability, T/C [28]: 94.5%
- viability, T/C [29]: 128%
- viability, T/C [30]: 109%
- viability, T/C [31]: 91.8%
- viability, T/C [32]: 97%
- viability, T/C [33]: 110%
- viability, T/C [34]: 105%
- viability, T/C [35]: 122%
- viability, T/C [36]: 80%

Structure (SMILES): Cn1ncnc1[C@H]1c2n[nH]c(=O)c3cc(F)cc(c23)N[C@@H]1c1ccc(F)cc1 + CN(C)c1ccc(Nc2c3ccc(NC(=O)CCN4CCCC4)cc3nc3cc(NC(=O)CCN4CCCC4)ccc23)cc1
- IC50 (second compound 0.0316 µM): > 0.316 µM
- IC50 (second compound 0.1 µM): > 0.316 µM
- IC50 (second compound 0.316 µM): > 0.316 µM
- IC50 (second compound 1 µM): > 0.316 µM
- IC50 (second compound 3.16 µM): > 0.316 µM
- IC50 (second compound 10 µM): > 0.316 µM
- viability, T/C (second compound 0.0316 µM, first compound 0.000999 µM): 96.8%
- viability, T/C (second compound 0.0316 µM, first compound 0.00316 µM): 92.6%
- viability, T/C (second compound 0.0316 µM, first compound 0.00999 µM): 101%
- viability, T/C [1]: 104%
- viability, T/C (second compound 0.0316 µM, first compound 0.0999 µM): 112%
- viability, T/C [3]: 110%
- viability, T/C (second compound 0.1 µM, first compound 0.000999 µM): 127%
- viability, T/C (second compound 0.1 µM, first compound 0.00316 µM): 82.7%
- viability, T/C (second compound 0.1 µM, first compound 0.00999 µM): 88.7%
- viability, T/C [7]: 105%
- viability, T/C (second compound 0.1 µM, first compound 0.0999 µM): 101%
- viability, T/C [9]: 98.8%
- viability, T/C (second compound 0.316 µM, first compound 0.000999 µM): 109%
- viability, T/C (second compound 0.316 µM, first compound 0.00316 µM): 77.7%
- viability, T/C (second compound 0.316 µM, first compound 0.00999 µM): 78.9%
- viability, T/C [13]: 89.3%
- viability, T/C (second compound 0.316 µM, first compound 0.0999 µM): 94.3%
- viability, T/C [15]: 83.3%
- viability, T/C (second compound 1 µM, first compound 0.000999 µM): 109%
- viability, T/C (second compound 1 µM, first compound 0.00316 µM): 108%
- viability, T/C (second compound 1 µM, first compound 0.00999 µM): 100%
- viability, T/C [19]: 94.9%
- viability, T/C (second compound 1 µM, first compound 0.0999 µM): 107%
- viability, T/C [21]: 89.1%
- viability, T/C (second compound 3.16 µM, first compound 0.000999 µM): 85.5%
- viability, T/C (second compound 3.16 µM, first compound 0.00316 µM): 81%
- viability, T/C (second compound 3.16 µM, first compound 0.00999 µM): 101%
- viability, T/C [25]: 90.8%
- viability, T/C (second compound 3.16 µM, first compound 0.0999 µM): 92.8%
- viability, T/C [27]: 102%
- viability, T/C (second compound 10 µM, first compound 0.000999 µM): 81.4%
- viability, T/C (second compound 10 µM, first compound 0.00316 µM): 84.8%
- viability, T/C (second compound 10 µM, first compound 0.00999 µM): 91.6%
- viability, T/C [31]: 106%
- viability, T/C (second compound 10 µM, first compound 0.0999 µM): 101%
- viability, T/C [33]: 101%

Structure (SMILES): O=C(c1cc(Cc2n[nH]c(=O)c3ccccc23)ccc1F)N1CCN(C(=O)C2CC2)CC1 + CN(C)c1ccc(Nc2c3ccc(NC(=O)CCN4CCCC4)cc3nc3cc(NC(=O)CCN4CCCC4)ccc23)cc1
- IC50 (second compound 0.0316 µM): > 10 µM
- IC50 (second compound 0.1 µM): > 10 µM
- IC50 (second compound 0.316 µM): > 10 µM
- IC50 (second compound 1 µM): > 10 µM
- IC50 (second compound 3.16 µM): > 10 µM
- IC50 (second compound 10 µM): > 10 µM
- viability, T/C [1]: 102%
- viability, T/C [2]: 91.5%
- viability, T/C [3]: 94.2%
- viability, T/C [4]: 97.4%
- viability, T/C [5]: 105%
- viability, T/C [6]: 96.8%
- viability, T/C [7]: 128%
- viability, T/C [8]: 107%
- viability, T/C [9]: 96.9%
- viability, T/C [10]: 100%
- viability, T/C [11]: 89.7%
- viability, T/C [12]: 90.7%
- viability, T/C [13]: 102%
- viability, T/C [14]: 92.6%
- viability, T/C [15]: 83.4%
- viability, T/C [16]: 81.5%
- viability, T/C [17]: 91.2%
- viability, T/C [18]: 109%
- viability, T/C [19]: 108%
- viability, T/C [20]: 88%
- viability, T/C [21]: 88.1%
- viability, T/C [22]: 74.9%
- viability, T/C [23]: 74.7%
- viability, T/C [24]: 92.4%
- viability, T/C [25]: 91.6%
- viability, T/C [26]: 83.5%
- viability, T/C [27]: 99.3%
- viability, T/C [28]: 101%
- viability, T/C [29]: 86.5%
- viability, T/C [30]: 89.5%
- viability, T/C [31]: 99%
- viability, T/C [32]: 88.4%
- viability, T/C [33]: 105%
- viability, T/C [34]: 75.9%
- viability, T/C [35]: 108%
- viability, T/C [36]: 119%
